Test results as given in article PMC9369335, “Tailoring the Structure of Cell Penetrating DNA and RNA Binding Nucleopeptides” (International Journal of Molecular Sciences, 2022).
Square brackets hold non-standard residues; d marks the D form. Peptide text beside a SMILES is read from it. * marks the point of attachment. FITC = O=C1OC2(c3ccc(O)cc3Oc3cc(O)ccc32)c2ccc(NC(=S)*)cc21; Acetyl(thymin-1-yl) = Cc1cn(CC(=O)*)c(=O)[nH]c1=O; Dab = NCC[C@H](N)C(=O)O; Ahx = NCCCCCC(=O)O

System: HT29, CCRF-CEM and Jurkat cells
Assay: Cellular and nuclear uptake of FITC-labelled nucleopeptides by flow cytometry
Assay type: cell-based, human
Conditions: 10 µM, 3 h, 37 °C, comparison in words
Description: The promising results achieved with 32 and 33 in terms of DNA and RNA recognition and binding studies prompted us to investigate their capability to cross the cellular membrane and to distribute between cytoplasm and nucleus. Specifically, cell penetration experiments were carried out employing 34 and 35 (the FITC-labelled derivatives of 32 and 33, respectively) on three different cancer cell lines (Jurkat, HT29 and CEM). […]
The fluorescence of Fluorescein Isothiocyanate (FITC) (excitation 488 nm, emission 525 nm) was used to evaluate the intracellular and intranuclear nucleopeptides uptake using flow cytometry. […] To evaluate cellular uptake, the cell pellets were suspended in 500 µL of PBS and analyzed by flow cytometry. For nuclear uptake, the nuclei were extracted with PBS-Triton (0.5%) for 15 min at room temperature (RT), washed with PBS-Triton (0.1%), suspended in 500 µL of PBS and analyzed by FACS ARIA III flow cytometry (BD Bioscience, Mountain View, CA, USA) with DIVA software 8.01. […] The uptake was evaluated as mean fluorescence and was analyzed using FlowJo 10.7.1 software.

- concentration in cytoplasm (cellular uptake, mean fluorescence) (1 × 10^6 cells): significantly higher than 35
- concentration in nucleus (nuclear uptake, mean fluorescence) (nuclei extracted with PBS-Triton 0.5%): significantly higher than 35
Compound: Cc1cn(CC(=O)NCC[C@H](NC(=O)CCCCCNC(=S)Nc2ccc3c(c2)C(=O)OC32c3ccc(O)cc3Oc3cc(O)ccc32)C(=O)N[C@@H](CCCNC(=N)N)C(=O)N[C@@H](CCNC(=O)Cn2cc(C)c(=O)[nH]c2=O)C(=O)N[C@@H](CCCNC(=N)N)C(=O)N[C@@H](CCNC(=O)Cn2cc(C)c(=O)[nH]c2=O)C(=O)N[C@@H](CCCNC(=N)N)C(=O)N[C@@H](CCNC(=O)Cn2cc(C)c(=O)[nH]c2=O)C(=O)N[C@@H](CCCNC(=N)N)C(=O)N[C@@H](CCNC(=O)Cn2cc(C)c(=O)[nH]c2=O)C(=O)N[C@@H](CCCNC(=N)N)C(=O)N[C@@H](CCNC(=O)Cn2cc(C)c(=O)[nH]c2=O)C(=O)N[C@@H](CCCNC(=N)N)C(N)=O)c(=O)[nH]c1=O [compound 34] ({FITC-Ahx}-[Dab](Acetyl(thymin-1-yl))R[Dab](Acetyl(thymin-1-yl))R[Dab](Acetyl(thymin-1-yl))R[Dab](Acetyl(thymin-1-yl))R[Dab](Acetyl(thymin-1-yl))R[Dab](Acetyl(thymin-1-yl))R-NH2)
